Where a name gives a salt, the structure may show the parent alone.
Legend:
IgE = assay: Combined anaphylactic reaction (IgE) and cutaneous histamine reaction in the same rat: IgE reaction; assay type: in vivo, Sprague-Dawley rat
Procedure: (§1) Antihistamine-antiallergy activity was also determined by combining an anaphylactic reaction (IgE) and a cutaneous histamine reaction in the same animal (Sprague-Dawley rat). Activity was evaluated by the quantity of Evans blue liberated at each reaction site as compared with control animals receiving the administration vehicle. COR 2831 produced the following ED50 values in this test: […]

[1] = system: isolated guinea pig ileum (histamine); assay: Antihistamine activity in vitro: histamine-induced contractions of isolated guinea pig ileum; conditions: histamine 5.10^-7 g/ml
[2] = system: isolated guinea pig ileum (serotonin); assay: Antiserotonin activity in vitro: serotonin-induced contractions of isolated guinea pig ileum; conditions: serotonin 10^-6 g/ml
Text: Antiserotonin Activity: In vitro, contractions induced in isolated guinea pig ileum by 10^-6 g/ml serotonin were inhibited by COR 2838 in a concentration of 4.10^-7 g/ml and COR 2831 and COR 2833 in a concentration of 2.10^-6 g/ml.

histamine = assay: Combined anaphylactic reaction (IgE) and cutaneous histamine reaction in the same rat: histamine reaction; assay type: in vivo, Sprague-Dawley rat
Procedure: as §1

[3] = system: phenylephrine-induced hypertension; assay: Alpha-blocking activity in vivo: antagonism of phenylephrine-induced hypertension in rats with spinal cord removal and bivagotomy; conditions: intravenous; for ED50 / inhibition in vivo at 3 µmol/kg: Rattus norvegicus; for inhibition in vivo at 3 µmol/kg: read-out: maximum activity (antagonism of phenylephrine-induced hypertension)
Procedure: (§2) Alpha-blocking activity was determined in vivo in mice with the test involving inhibition of mydriasis induced by norepinephrine. […] Thirty minutes later, 0.75 mg/kg norepinephrine was administered intravenously. […] In vivo alpha-blocking activity was also evaluated by determination of antagonism of phenylephrine-induced hypertension. The test products were administered by the intravenous route to rats that had undergone spinal cord removal and bivagotomy according to the technique by J. S. Gillespie and T. S. Muir (Br. J. Pharmac. Chemother. 30:78-87, 1967). The dosage, maximum activity, and the interval after which residual activity was equal to 50% of the maximum activity are presented below: […]

[4] = system: passive cutaneous anaphylaxis; assay: Passive cutaneous anaphylaxis test in rats; assay type: in vivo
Procedure: Antiallergy-Antihistamine Activity: In the passive cutaneous anaphylaxis test, COR 2833 and COR 2838 given to rats in an intravenous dose of 10 mg/kg produced 53 and 60% activity, respectively. Under the same conditions, COR 2831 produced 67% activity in an oral dose of 5 mg/kg.

mice [5] = assay: Toxicity, oral administration to mice; assay type: in vivo; conditions: oral dose of 300 mg/kg
[6] = Toxicity, oral administration to mice; assay type: in vivo; conditions: mouse, in vivo, oral route, confidence interval in parentheses
Alpha-1 [7] = assay: Type of antagonism vis-a-vis norepinephrine on isolated rabbit aorta strips (cumulative curve method, Van Rossum, in presence of cocaine); conditions: 30 minutes interval
Procedure: Alpha-1 Blocking Activity: Alpha-1 blocking activity is evaluated in vitro by determination of the antagonism of contractions induced in isolated rabbit aorta strips by norepinephrine used in a concentration of 2.10^-6 mol/1 according to a technique derived from that described by Furchgott and Bhadrakom (J. Pharmacol. 108:129-43, 1953). The IC50 (concentration inhibiting 50% of the contractions) as well as the interval between introduction of the test product and of the […] into the bath, which corresponds to the maximum activity, are presented below for the derivatives according to the present invention: COR 2831, 90 min, 1.10·10^-7 (9.26·10^-8 -1.31·10^-7)mol/1; COR 2837, 30 min, 1.64·10^-6 (1.44·10^-6 -1.85·10^-6) mol/1; COR 2841, 60 min, 1.16·10^-6(9.24·10^-7 -1.46·10^-6) mol/1; COR 2843, 60 min, 9.82·10^ -7 (7.67·10^-7 -1.26·10^-6) mol/1; COR 2838, 60 min, 2.53·10^-6(2.15·10^-6 -2.98·10^-6 mol/1. The type of antagonism that COR 2831 exerts vis-a-vis norepinephrine was determined on the same type of preparation for an interval of 30 minutes, using the cumulative curve method according to Van Rossum in the presence of cocaine.

Alpha-1 [8] = assay: Alpha-1 blocking activity in vitro: antagonism of norepinephrine-induced contractions of isolated rabbit aorta strips; conditions: norepinephrine 2.10^-6 mol/1
mice [9] = assay: Toxicity, intraperitoneal administration to mice
[10] = system: spontaneously hypertensive rats; assay: Antihypertensive activity, spontaneously hypertensive rats, oral, two days, sphygmomanometer; assay type: in vivo; conditions: 100 mg/kg/day for two days, one hour after gavage
Procedure: Antihypertensive Activity: The test products were administered orally to spontaneously hypertensive rats. Arterial pressure was measured indirectly with a sphygmomanometer.

[11] = Toxicity, intravenous administration to mice; assay type: in vivo; conditions: mouse, in vivo, intravenous route
[12] = system: strips of mesenteric veins; assay: Anticalcium activity: calcium-induced increment of spontaneous contractions in mesenteric vein strips; conditions: 5.10^-6 g/ml, rats with normal blood pressure
Text: At 5.10^-6 g/ml, COR 2838 inhibited the calcium-induced increment of spontaneous contractions in strips of mesenteric veins from rats with normal blood pressure.

[13] = Solubility and hygroscopicity of the isolated product; assay type: physicochemical; conditions: dihydrochloride
Procedure: A solution of 6 g 4-isopropyl-2-methyl-4-methylaminoethoxy phenol and 6 g 1-chloroethyl-4-phenylpiperazine in 10 ml triethylamine and 150 ml ethyl alcohol is heated for 20 hours in a reflux system. The excess ethyl alcohol and triethylamine are evaporated. The residue is taken up in an aqueous solution of hydrochloric acid. The solution obtained is extracted with chloroform. The aqueous phase is alkalized with ammonia and then extracted again with chloroform. After drying and evaporation of the chloroform, 9.3 g of crude product is obtained. This is purified by silica chromatography using as the eluent pure chloroform followed by a mixture of 98% chloroform and 2% methanol. This procedure yield 4.6 g of free base; yield, 42%. The latter is transformed into a hydrochloride by a saturated ethyl ether solution in gaseous hydrochloric acid. This produces a white solid which is filtered and washed with a little ethyl ether.

left guinea pig auricle = assay: Anticalcium activity: electrically stimulated left guinea pig auricle, calcium-induced contraction force; conditions: 25.10^-6 g/ml; 0.6 mM calcium added; 150 beats/min, low calcium Tyrode's solution
glucose tolerance curve = assay: Hypoglycemic activity: glucose tolerance curve after an excess of starch; assay type: in vivo; conditions: one hour after oral 100 mg/kg, excess of starch (2.5 g per kg)
Procedure: (§3) Hypoglycemic Activity: One hour after oral administration of a dose of 100 mg/kg, COR 2839 produced a 21% reduction in the glucose tolerance curve after an excess of starch (2.5 g per kg). One hour after oral administration of a dose of 100 mg per kg, COR 2839 brought about a decrease of 24% in the blook sugar of fasting mice subjected to an excess of glucose (1 g per kg) at the time that the test product was tiven.

fasting mice = assay: Hypoglycemic activity: blood sugar of fasting mice subjected to an excess of glucose; assay type: in vivo; conditions: one hour after oral 100 mg per kg, excess of glucose (1 g per kg)
Procedure: as §3

platelet aggregation = assay: Platelet anti-aggregation activity: sodium arachidonate-induced aggregation in rabbit plasma with a high platelet content; assay type: cell-based; conditions: Oryctolagus cuniculus, 50 mcg/ml sodium arachidonate; for inhibition at 5 µg/mL: 5 mcg/ml
Text: In the presence of aspirin, this inhibition was 100% in a concentration of 2.5 mcg/ml COR 2860 and a concentration of 5 mcg/ml COR 2864. In the absence of aspirin, the inhibition was 100% with a concentration of 5 mcg/ml COR 2860 and 10 mcg/ml COR 2864.

[14] = system: norepinephrine-induced mydriasis; assay: Alpha-blocking activity in vivo: inhibition of norepinephrine-induced mydriasis in mice; conditions: 25 mg/kg, 0.75 mg/kg norepinephrine IV
Procedure: as §2

[15] = mice, intraperitoneal dose of 200 mg per kg

## COc1ccccc1N1CCN(CCOc2cc(C)c(O)cc2C(C)C)CC1 [COR 2831, 5-Isopropyl-2-methyl-4-(2-methoxyphenylpiperazinyl)ethoxy)phenol hydrochloride]
IgE; IV route
  ED50: 0.27 mg/kg
IgE; Oral route
  ED50: 14.4 mg/kg
[1]; 10^-5 g/ml
  inhibition of histamine-induced contractions: 80%
[2]; 2.10^-6 g/ml
  inhibition of serotonin-induced contractions: inhibited
histamine; IV route
  ED50: 0.37 mg/kg
histamine; Oral route
  ED50: 8 mg/kg
[3]; 2 min, after 2 min
  ED50: 0.0195 µmol/kg
[3]; 0.5 h, after 30 min
  ED50: 0.304 µmol/kg
[3]; 1 h, after 60 min
  ED50: 0.84 µmol/kg
[3]; 3.10^-6 M/kg
  inhibition in vivo at 3 µmol/kg: 129%
  interval after which residual activity was equal to 50% of the maximum activity: > 2 h
[4]; oral, 5 mg/kg
  activity in the passive cutaneous anaphylaxis test: 67%
Mice [5]
  deaths: no deaths
[6]
  LD50: 1130 mg/kg
Alpha-1 [7]; Arunlakshama and Schild method
  pA2: 8.59±0.08
Alpha-1 [7]; vis-a-vis norepinephrine
  type of antagonism: competitive nature
Alpha-1 [8]
  interval between introduction of the test product and of the […] into the bath, which corresponds to the maximum activity: 90 min
Mice [9]; [15]
  deaths: no deaths
[10]; first day
  maximum pressure reduction: 26%
[10]; second day
  maximum pressure reduction: 21%
[11]
  LD50: 86 mg/kg

## COc1ccccc1N1CCN(CCN(C)CCOc2cc(C)c(O)cc2C(C)C)CC1 [COR 2833, 5-Isopropyl-2-methyl-4-((N-methyl N-2-((2-methoxyphenyl)piperazinylethyl)amino)ethoxyphenoldihydrochloride]
[1]; concentration of 2.10^-6
  inhibition of histamine-induced contractions: 80%
[2]; 2.10^-6 g/ml
  inhibition of serotonin-induced contractions: inhibited
[4]; intravenous, 10 mg/kg
  activity in the passive cutaneous anaphylaxis test: 53%

## Cc1cc(OCCN2CCN(c3ccccc3)CC2)c(C(C)C)cc1O [COR 2837, 5-Isopropyl-2-methyl-4-phenylpiperazinylethoxyphenol hydrochloride]
[3]; 3.10^-6 M/kg
  inhibition in vivo at 3 µmol/kg: 91.1%
Mice [5]
  deaths: no deaths
Mice [9]; [15]
  deaths: no deaths

## Cc1cc(OCCN(C)CCN2CCN(c3ccccc3)CC2)c(C(C)C)cc1O [COR 2838, 5-Isopropyl-2-methyl-4-((N-methyl N-2-(phenylpiperazinyl-ethyl)amino)ethoxy) phenol dihydrochloride]
[1]; 10^-5 g/ml
  inhibition of histamine-induced contractions: 80%
[12]
  inhibition of calcium-induced increment of spontaneous contractions: inhibited
[13]
  hygroscopicity: hygroscopic
  solubility in water: soluble in water
[2]; 4.10^-7 g/ml
  inhibition of serotonin-induced contractions: inhibited
[3]; 3.10^-6 M/kg
  inhibition in vivo at 3 µmol/kg: 60%
[4]; intravenous, 10 mg/kg
  activity in the passive cutaneous anaphylaxis test: 60%
Left guinea pig auricle
  inhibition of the increment in the contraction force induced by calcium: 50%
Alpha-1 [8]
  interval between introduction of the test product and of the […] into the bath, which corresponds to the maximum activity: 60 min
Mice [9]; mouse, in vivo, ip, 50 mg/kg
  deaths: no deaths

## Cc1cc(OCCN2CCN(c3cccc(C(F)(F)F)c3)CC2)c(C(C)C)cc1O [COR 2839, 5-Isopropyl-2-methyl-4-(3-trifluoromethylphenyl) piperazinyl-ethoxy)phenol hydrochloride]
Glucose tolerance curve
  reduction in the glucose tolerance curve: 21%
Fasting mice
  decrease in the blood sugar: 24%
Mice [9]; [15]
  deaths: no deaths

## Cc1cc(OCCN2CCN(c3ccc(F)cc3)CC2)c(C(C)C)cc1O [COR 2841, 5-Isopropyl-2-methyl-4-(p-fluorophenylpiperazinylethoxy)phenol hydrochloride]
[3]; 3.10^-6 M/kg
  inhibition in vivo at 3 µmol/kg: 39.8%
Mice [5]
  deaths: no deaths

## Cc1cc(OCCN2CCN(c3cccc(Cl)c3)CC2)c(C(C)C)cc1O [COR 2842, 5-Isopropyl-2-methyl-4-((3-chlorophenyl)piperazinylethoxy)phenol hydrochloride]
[3]; 3.10^-6 M/kg
  inhibition in vivo at 3 µmol/kg: 35.1%
Mice [5]
  deaths: no deaths
Mice [9]; [15]
  deaths: no deaths

## Cc1cc(OCCN2CCN(c3ccccc3C)CC2)c(C(C)C)cc1O [COR 2843, 5-Isopropyl-2-methyl-4-(2-methylphenyl) piperazinylethoxy phenol hydrochloride]
[3]; 3.10^-6 M/kg
  inhibition in vivo at 3 µmol/kg: 112%
Mice [5]
  deaths: no deaths
Mice [9]; [15]
  deaths: no deaths

## COc1ccc(N2CCN(CCOc3cc(C)c(O)cc3C(C)C)CC2)cc1 [COR 2860, 5-Isopropyl-2-methyl-4-((4-methoxyphenylpiperazinyl)ethoxy)phenol dihydrochloride]
[3]; 3.10^-6 M/kg
  inhibition in vivo at 3 µmol/kg: 39.7%
Mice [5]
  deaths: no deaths
Platelet aggregation; 2.5 mcg/ml, in the presence of aspirin (1 mcg/ml)
  inhibition at 2.5 µg/mL: 100%
Platelet aggregation; in the absence of aspirin
  inhibition at 5 µg/mL: 100%
Mice [9]; [15]
  deaths: no deaths

## Cc1cc(OCCN2CCN(c3cccc(C)c3C)CC2)c(C(C)C)cc1O [COR 2861, 5-Isopropyl-2-methyl-4-((2,3-dimethylphenylpiperazinyl)ethoxyphenol hydrochloride]
[3]; 3.10^-6 M/kg
  inhibition in vivo at 3 µmol/kg: 66.4%
Mice [5]
  deaths: no deaths
Mice [9]; [15]
  deaths: no deaths

## Cc1cc(OCCN2CCN(c3ccccc3Cl)CC2)c(C(C)C)cc1O [COR 2864, 5-Isopropyl-2-methyl-4-((2-chlorophenyl)piperazinylethoxy)phenol hydrochloride]
[3]; 3.10^-6 M/kg
  inhibition in vivo at 3 µmol/kg: 98.6%
Mice [5]
  deaths: no deaths
Platelet aggregation; in the presence of aspirin (1 mcg/ml)
  inhibition at 5 µg/mL: 100%
Platelet aggregation; 10 mcg/ml, in the absence of aspirin
  inhibition at 10 µg/mL: 100%
Mice [9]; [15]
  deaths: no deaths

## CC(CCc1ccccc1)NCC(O)c1ccc(O)c(C(N)=O)c1 (centres unmarked) [labetalol, reference compound]
[14]
  inhibition of mydriasis: 58%

From patent US4721715A, “Derivatives of 4-(arylpiperazinyl-ethylaminoethoxy) phenol useful for effecting hypolipidemic therapy or cardiovascular therapy” (Societe Cortial, S.A., priority 1984, dated 1988)
